Assay results as given in patent publication US9701680B2, “Pyrimidine and pyridine compounds and their usage” (HUTCHISON MEDIPHARMA LIMITED, priority 2013, dated 2017).
Like-named read-outs stand apart in the source and are kept apart here.

Tests used:
KG-1 = assay: Cellular Proliferation Assay (Cell Counting Kit-8), KG-1; format: cell-based; details: Homo sapiens; KG-1 cells, 72 hours; read-out: KG1 IC50
Procedure: (§1) Example 26: Cellular Proliferation Assay
(§2) • 1. Cell Line • KG-1 (ATCC Accession No. CCL-246), • SNU-16 (ATCC Accession No. CRL-5974), • RT-112 (ECACC Accession No. 85061106) • 2. Assay Protocol • FGFR related cancer cell proliferation is measured in 96-well plates using Cell Counting Kit-8 (Dojindo CK04-13). • Seed 30000 cells/well of KG1, 5000 cells/well of SNU16, and 1000 cells/well of RT112 in a volume of 100 μL/well in growth media. • After 24 hours, dilute the test compound to 10, 3.3, 1.1, 0.37, 0.12, 0.04, 0.013, 0.004 μM, keeping the DMSO concentration at 5%. • Add 10 μL of 8-point compound series to the wells of culturing cells. • Incubate at 37° C. and 5% CO2 for 72 hours • Add 10 μL/well of CCkit8 and incubate at 37° C. and 5% CO2 for an hour • Detect the optical density of each well at 450 nm on Labsystems Multiskan K3. • 3. Data Analysis
(§3) [formula] Note: • ODcompound well represents the optical density of cells treated with compound. • ODcell well represents the optical density of cells without compounds treatment.(only 0.5% DMSO) • ODcontrol well represents the optical density of culture media background • IC50: determined with add-in software for Microsoft Excel, XLfit™ (version 2.0) from ID Business Solutions (Guildford, UK).

RT-112 = assay: Cellular Proliferation Assay (Cell Counting Kit-8), RT-112; format: cell-based; details: Homo sapiens; RT-112 cells, 72 hours
Procedure: as §1, §2, §3

SNU-16 = assay: Cellular Proliferation Assay (Cell Counting Kit-8), SNU-16; format: cell-based; details: Homo sapiens; SNU-16 cells, 72 hours
Procedure: as §1, §2, §3

FGFR3 kinase = FGFR3 kinase (Homo sapiens, UniProt P22607); assay: Z-Lyte Kinase Assay of FGFR3; format: biochemical
Sequence of FGFR3 kinase (P22607 23-806): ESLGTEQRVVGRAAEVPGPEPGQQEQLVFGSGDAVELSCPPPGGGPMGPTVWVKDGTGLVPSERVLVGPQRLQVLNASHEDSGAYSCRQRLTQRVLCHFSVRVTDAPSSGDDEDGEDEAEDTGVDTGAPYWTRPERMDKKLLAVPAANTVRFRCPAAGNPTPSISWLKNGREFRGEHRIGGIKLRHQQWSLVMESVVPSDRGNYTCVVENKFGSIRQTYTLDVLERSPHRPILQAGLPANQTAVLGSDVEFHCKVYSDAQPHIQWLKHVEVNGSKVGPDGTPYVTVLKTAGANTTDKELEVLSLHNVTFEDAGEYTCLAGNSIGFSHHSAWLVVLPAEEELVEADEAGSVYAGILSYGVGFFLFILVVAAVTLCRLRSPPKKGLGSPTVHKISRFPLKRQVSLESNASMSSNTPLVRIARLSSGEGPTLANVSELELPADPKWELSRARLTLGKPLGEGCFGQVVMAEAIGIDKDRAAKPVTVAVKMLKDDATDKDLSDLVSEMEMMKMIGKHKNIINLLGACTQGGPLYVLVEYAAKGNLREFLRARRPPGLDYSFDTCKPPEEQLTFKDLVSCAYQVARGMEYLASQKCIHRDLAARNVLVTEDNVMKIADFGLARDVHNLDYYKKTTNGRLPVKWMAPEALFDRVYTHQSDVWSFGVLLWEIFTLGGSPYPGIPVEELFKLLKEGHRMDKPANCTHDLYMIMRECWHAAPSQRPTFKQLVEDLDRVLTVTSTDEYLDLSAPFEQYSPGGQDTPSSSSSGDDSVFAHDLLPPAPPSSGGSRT
Procedure: Example 25: Z-Lyte Kinase Assay of FGFR3
• 1. Materials and Reagents:
• 2. Reaction Steps: Plate Map
• 3. […] The final concentrations are 1, 0.33, 0.11, 0.037, 0.012, 0.004, 0.0014, 0.00046 μM, and the final concentration of DMSO is 2%. • 3) Kinase/Peptide Mixture (P/K solution): Prepare Kinase/Peptide Mixture by diluting the kinase to 0.7 μg/ml and the Z-LYTE™ Tyr 4 peptide to 4 μM in 1.33× Kinase Buffer. Mix gently by pipetting. • 4) Phospho-peptide Solution (PP solution): Add 0.4 μl of Z-LYTE™ Tyr 4 Phospho-peptide to 99.6 μl of 1.33× Kinase Buffer. • 5) ATP Solution: Prepare ATP Solution by diluting the 10 mM of ATP in 1.33× Kinase Buffer to 300 uM. • 6) Development Solution: Dilute Development Reagent B with Development Buffer as 1:128. • 4. […] Shake the plate for 30 Sec and centrifuge (1500 rpm, 1 min). • Seal the plate to protect from the light and incubate the plate for 1 hour at RT (25-30° C.). • 2) Development reaction • Add 5 μl of the Development solution to all wells. • Shake the plate for 30 Sec and centrifuge (1500 rpm, 1 min). • Seal the plate to protect from the light and incubate the plate for 1 hour at RT (25-30° C.). • 3) Stop and Read • Add 5 μl of the Stop reagent to all wells. • Shake the plate for 30 Sec and centrifuge (1500 rpm, 1 min). • Measure the value of Coumarin (Ex400 nm, Em445 nm) and fluorescein (Ex400 nm, Em520 nm), respectively. • 5. Data Analysis Emission Ratio(ER)=Coumarin Emission (445 nm)/Fluorescein Emission (520 nm) % Phosphorylation=1−[ER×C3520nm-C3445nm]/[(C1445nm-C3445nm)+ER×(C3520nm−C1520nm)] Inhibition rate (IR)=1−% Photest Cpd/% PhoC2 • 6. IC50 Value: determined with add-in software for Microsoft Excel, XLfit™ (version 2.0) from ID Business Solutions (Guildford, UK)

Recombinant human FGFR2 = Recombinant human FGFR2 (Homo sapiens, UniProt P21802); assay: Transcreener Kinase Assay of FGFR2; format: biochemical
Sequence of Recombinant human FGFR2 (P21802 22-821): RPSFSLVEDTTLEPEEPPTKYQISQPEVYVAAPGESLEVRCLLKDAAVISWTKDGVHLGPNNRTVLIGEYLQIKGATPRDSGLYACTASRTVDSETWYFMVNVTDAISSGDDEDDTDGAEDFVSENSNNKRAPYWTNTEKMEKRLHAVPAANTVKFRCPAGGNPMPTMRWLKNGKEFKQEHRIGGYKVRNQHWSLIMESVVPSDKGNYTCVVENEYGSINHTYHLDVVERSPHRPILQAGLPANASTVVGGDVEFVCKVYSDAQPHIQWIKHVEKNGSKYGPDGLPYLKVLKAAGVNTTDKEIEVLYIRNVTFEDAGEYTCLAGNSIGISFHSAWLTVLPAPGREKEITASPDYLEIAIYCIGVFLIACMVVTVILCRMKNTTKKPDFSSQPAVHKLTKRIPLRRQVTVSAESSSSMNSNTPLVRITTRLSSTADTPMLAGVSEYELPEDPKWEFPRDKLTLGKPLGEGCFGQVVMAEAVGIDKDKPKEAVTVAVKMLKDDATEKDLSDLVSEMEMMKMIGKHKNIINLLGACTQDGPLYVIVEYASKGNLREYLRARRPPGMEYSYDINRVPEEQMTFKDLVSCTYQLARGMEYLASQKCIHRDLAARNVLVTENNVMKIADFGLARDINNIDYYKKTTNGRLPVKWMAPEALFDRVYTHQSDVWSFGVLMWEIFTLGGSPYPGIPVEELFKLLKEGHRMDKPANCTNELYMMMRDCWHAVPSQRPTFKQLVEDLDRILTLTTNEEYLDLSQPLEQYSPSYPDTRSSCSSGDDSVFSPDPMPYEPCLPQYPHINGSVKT
Procedure: Example 24: Transcreener Kinase Assay of FGFR2
• 1. […] Prepare Solution • Test compounds were solved in DMSO and were diluted with assay buffer to 5 folds of final concentration keeping the DMSO concentration at 5%. Further dilution are needed to make final concentrations are at 1, 0.33, 0.11, 0.037, 0.012, 0.004, 0.0014, 0.0005 μM; (the final concentration of DMSO is 1%). • Enzyme/Substrate stock Preparation: Recombinant human FGFR2 and Poly E4Y are both diluted in assay buffer. The final concentration is 0.3 ng/μL for FGFR2 and 62.5 ng/μL for Poly E4Y. The mixture is being kept in ice before use; • Prepare ATP Diluents, 10 mM ATP is diluted in assay buffer, the final concentration is 25 μM; • Prepare ADP Diluents: diluted ADP (500 μM) in assay buffer, the final concentration is 25 μM; • Prepare ATP standard curve stock as following:
• 3. Enzymatic Reaction • In a 96-well plate, add 5 μL of deluted solution of test compound or control solution. (positive control: 5 μL of 5% DMSO; negative control: 5 μL of 500 mM EDTA) into desired wells respectively; • Add 10 μL of Enzyme/Substrate stock into each well; • Add 10 μL of ATP Diluents to initiate the enzyme reaction and vortex the plate immediately on a plate shaker; • For the wells to make standard curve, add 5 μL of 5% DMSO, 10 μL of assay buffer and 10 μL of ATP standard curve stock. • Incubate the plate for 45 min at 28° C. on a plate shaker in a low speed. • 4. Stoping Reaction and Detecting ADP • Detection Mix Preparation: The mixture is made by dilution with MilliQ water; as following: ADP Alexa633 tracer (1:100), ADP antibody (1:158), and stop & detect buffer (1:10); • Tracer Only control Preparation: The mixture is made by dilution with MilliQ water; as following: ADP Alexa633 tracer (1:100), and stop & detect buffer (1: 10) • No Tracer control Preparation: stop & detect buffer is diluted with MilliQ water; by 10 fold. • Add 25 μL of detection mix, Tracer Only control and No Tracer control into corresponding wells, respectively; • Incubate at 28° C. for 1 h, on a plate shaker in a low speed; • Measure florescence polarization (mP) on TECAN F500. Excitation wavelength: 610 nm, Emission wavelength: 670 nm. • 5. Data Analysis
(§4) [formula] Note: • [ADP] in Compound well represents the ADP concentration in test compound well. • [ADP] in Positive control well represents the ADP concentration in 5% DMSO well • Conversion of mP value to ADP concentration is calculated based on the formula which determined by standard curve. And mP value is measured by following the instruction provided by BellBrook Labs. (www.bellbrooklabs.com). • 6. IC50: determined with add-in software for Microsoft Excel, XLfit™ (version 2.0) from ID Business Solutions (Guildford, UK).

Recombinant human FGFR1 = Recombinant human FGFR1 (Homo sapiens, UniProt P11362); assay: Transcreener Kinase Assay of FGFR1; format: biochemical
Sequence of Recombinant human FGFR1 (P11362 22-822): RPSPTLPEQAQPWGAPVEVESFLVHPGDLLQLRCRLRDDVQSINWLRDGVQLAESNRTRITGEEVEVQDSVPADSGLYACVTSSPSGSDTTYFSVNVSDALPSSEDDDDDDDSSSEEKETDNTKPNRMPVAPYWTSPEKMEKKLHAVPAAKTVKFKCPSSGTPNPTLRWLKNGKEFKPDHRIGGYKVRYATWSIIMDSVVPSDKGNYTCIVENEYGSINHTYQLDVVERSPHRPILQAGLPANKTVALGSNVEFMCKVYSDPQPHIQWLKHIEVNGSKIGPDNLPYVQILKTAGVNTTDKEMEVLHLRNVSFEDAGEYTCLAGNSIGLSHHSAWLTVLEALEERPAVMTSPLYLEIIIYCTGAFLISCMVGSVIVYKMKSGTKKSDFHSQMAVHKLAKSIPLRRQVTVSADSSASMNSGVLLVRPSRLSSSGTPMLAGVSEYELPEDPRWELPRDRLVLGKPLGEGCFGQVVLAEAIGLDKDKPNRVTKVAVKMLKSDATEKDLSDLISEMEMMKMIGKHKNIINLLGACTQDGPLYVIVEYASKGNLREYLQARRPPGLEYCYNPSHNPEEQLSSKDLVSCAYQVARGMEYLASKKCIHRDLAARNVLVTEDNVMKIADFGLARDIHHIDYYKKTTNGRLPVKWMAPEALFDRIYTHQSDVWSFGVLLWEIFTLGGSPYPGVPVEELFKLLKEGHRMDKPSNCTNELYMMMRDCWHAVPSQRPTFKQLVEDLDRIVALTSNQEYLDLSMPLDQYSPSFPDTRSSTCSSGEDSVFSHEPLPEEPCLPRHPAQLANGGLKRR
Procedure: • 1. […] Prepare Solution • Test compounds were solved in DMSO and were diluted with assay buffer to 5 folds of final concentration keeping the DMSO concentration at 5%. Further dilution are needed to make final concentrations are at 1, 0.33, 0.11, 0.037, 0.012, 0.004, 0.0014, 0.0005 μM; (the final concentration of DMSO is 1%). • Enzyme/Substrate stock Preparation: Recombinant human FGFR1 and Poly E4Y are both diluted in assay buffer.
• 3. Enzymatic Reaction • In a 96-well plate, add 5 μL of diluted solution of test compound or control solution. (positive control: 5 μL of 5% DMSO; negative control: 5 μL of 500 mM EDTA) into desired wells respectively; • Add 10 μL of Enzyme/Substrate stock into each well; • Add 10 μL of ATP Diluents to initiate the enzyme reaction and vortex the plate immediately on a plate shaker; • For the wells to make standard curve, add 5 μL of 5% DMSO, 10 μL of assay buffer and 10 μL of ATP standard curve stock. • Incubate the plate for 45 min at 28° C. on a plate shaker in a low speed. • 4. […] Excitation wavelength: 610 nm, Emission wavelength: 670 nm. • 5. Data Analysis
as §4

SMILES	IC50 (KG-1) [nM]	IC50 (RT-112) [nM]	IC50 (SNU-16) [nM]	IC50 (FGFR3 kinase; Z-lyte) [nM]	IC50 (Recombinant human FGFR2; FP) [nM]	IC50 (Recombinant human FGFR1; FP) [nM]	IC50 (FGFR3 kinase) [nM]	IC50 (Recombinant human FGFR2; read-out: FGFR2 (FP) IC50) [nM]	IC50 (Recombinant human FGFR1; read-out: FGFR1 (FP) IC50) [nM]
CCN1CCN(c2ccc(Nc3ncc(C#Cc4cc(C(=O)NC)cc(OC)c4F)cn3)cc2OC)CC1 [Compound 307]	5	5	1	21	17	19	–	–	–
CCN1CCN(c2ccc(Nc3ncc(OCc4cc(C(=O)NC)cc(OC)c4F)cn3)cc2OC)CC1 [Compound 283]	8	8	3	4	5	12	–	–	–
CNC(=O)c1cc(COc2cnc(Nc3ccc([C@H]4CCCNC4)nc3)nc2)c(Cl)c(OC)c1 [Compound 245]	533	581	136	–	–	–	18	17	16
CNC(=O)c1cc(COc2cnc(Nc3cccc(-n4nccn4)c3)nc2)c(Cl)c(OC)c1 [Compound 232]	70	107	60	–	–	–	228	9	17
CNC(=O)c1cc(CCc2cnc(Nc3ccc(C(C)(C)C#N)nc3)nc2)c(F)c(OC)c1 [Compound 142]	64	127	43	–	–	–	49	12	31
CNC(=O)c1cc(COc2cnc(Nc3ccc(N4CCOCC4)c(OC)c3)nc2)c(F)c(OC)c1 [Compound 261]	19	13	7	–	–	–	18	13	26
CCN(CC)CCNC(C)c1ccc(Nc2ncc(OCc3cc(C(=O)NC)cc(OC)c3Cl)cn2)cc1 (stereo not drawn) [Compound 295]	40	337	104	19	13	13	–	–	–
CNC(=O)c1cc(COc2cnc(Nc3ccc(N4CCC(N(C)C)CC4)cc3)nc2)c(F)c(OC)c1 [Compound 264]	7	8	8	–	–	–	6	5	10
CNC(=O)c1cc(COc2cnc(Nc3ccc(C(C)=O)cc3)nc2)c(F)c(OC)c1 [Compound 215]	26	127	72	–	–	–	65	20	44
CNC(=O)c1cc(COc2cnc(Nc3ccc(-n4cncn4)cc3)nc2)c(F)c(OC)c1 [Compound 221]	35	72	27	–	–	–	37	11	34
CNC(=O)c1cc(CCc2cnc(Nc3ccc(N4C[C@@H](C)N[C@@H](C)C4)c(OC)c3)nc2)c(F)c(OC)c1 [Compound 156]	218	13	9	–	–	–	6	6	14
CNC(=O)c1cc(COc2cnc(Nc3ccc([C@@H]4CCCNC4)nc3)nc2)c(Cl)c(OC)c1 [Compound 244]	362	585	115	–	–	–	13	10	10
CNC(=O)c1cc(OC)c(F)c(COc2cnc(Nc3ccc(N4C[C@@H](C)N[C@@H](C)C4)nc3)nc2)c1F [Compound 278]	34	65	27	20	14	23	–	–	–
CCN1CCN(c2ccc(Nc3ncc(OCc4cc(C(=O)NC)cc(OC)c4Cl)cn3)cn2)CC1 [Compound 272]	18	31	15	–	–	–	8	9	10
CNC(=O)c1cc(COc2cnc(Nc3cccc(CCN4CCN(CCOC)CC4)c3)nc2)c(F)c(OC)c1 [Compound 301]	24	37	11	10	6	9	–	–	–
C#Cc1cccc(Nc2ncc(OCc3cc(C(=O)NC)cc(OC)c3F)cn2)c1 [Compound 210]	166	305	115	–	–	–	177	13	24
